Results from ChEMBL document CHEMBL1201862, “PubChem BioAssay data set” (2004).
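Interpolation was linear, between the two tested concentrations surrounding the appropriate level; five concentrations were tested over 48 hours in 96-well plates. At the GI50, growth is halved.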 Activity calls are given as the source filed them. No stated cut-off is given here; in the data, active = GI50 up to about 1.1 µM and inactive = higher.

Assays:
Test in all cases: inhibition of tumour cell growth, NCI panel, 48 h
OVCAR-3 = tested on: OVCAR-3
SNB-19 = tested on: SNB-19
K562 = tested on: K562
MDA-N = tested on: MDA-N
NCI/ADR-RES = tested on: NCI/ADR-RES
SW-620 = tested on: SW-620
NCI-H226 = tested on: NCI-H226
MCF7 = tested on: MCF7
OVCAR-5 = tested on: OVCAR-5
SN12C = tested on: SN12C
UACC-257 = tested on: UACC-257
U-251 = tested on: U-251
RXF 393 = tested on: RXF 393
NCI-H460 = tested on: NCI-H460
HL-60 = tested on: HL-60
MDA-MB-435 = tested on: MDA-MB-435
CAKI-1 = tested on: CAKI-1
UACC-62 = tested on: UACC-62
Hs-578T = tested on: Hs-578T
OVCAR-8 = tested on: OVCAR-8
IGROV-1 = tested on: IGROV-1
A549 = tested on: A549
ACHN = tested on: ACHN
UO-31 = tested on: UO-31
Malme-3M = tested on: Malme-3M
HT-29 = tested on: HT-29
M14 = tested on: M14
RPMI-8226 = tested on: RPMI-8226
SK-OV-3 = tested on: SK-OV-3
PC-3 = tested on: PC-3
786-0 = tested on: 786-0
TK-10 = tested on: TK-10
NCI-H23 = tested on: NCI-H23
COLO 205 = tested on: COLO 205
HCC 2998 = tested on: HCC 2998
HCT-15 = tested on: HCT-15
HCT-116 = tested on: HCT-116
NCI-H522 = tested on: NCI-H522
SF-539 = tested on: SF-539
A498 = tested on: A498
SR = tested on: SR
SNB-75 = tested on: SNB-75
DU-145 = tested on: DU-145
SF-268 = tested on: SF-268
MDA-MB-231 = tested on: MDA-MB-231
MOLT-4 = tested on: MOLT-4
HOP-62 = tested on: HOP-62
KM12 = tested on: KM12
OVCAR-4 = tested on: OVCAR-4
BT-549 = tested on: BT-549
LOX IMVI = tested on: LOX IMVI
T47D = tested on: T47D
SK-MEL-5 = tested on: SK-MEL-5
EKVX = tested on: EKVX
HOP-92 = tested on: HOP-92
SK-MEL-2 = tested on: SK-MEL-2
SF-295 = tested on: SF-295
SK-MEL-28 = tested on: SK-MEL-28
CCRF-CEM = tested on: CCRF-CEM

Measured: GI50

CC1(C)C(CBr)=[N+]([O-])C(C)(C)N1O
active: CCRF-CEM 0.604 µM
inactive: OVCAR-3 3.32 µM | SNB-19 > 10 µM | K562 > 4.93 µM | MDA-N 3.99 µM | NCI/ADR-RES > 7.24 µM | SW-620 2.25 µM | NCI-H226 > 10 µM | MCF7 4.91 µM | OVCAR-5 > 10 µM | SN12C 4.04 µM | UACC-257 8.99 µM | U-251 > 10 µM | RXF 393 3.31 µM | NCI-H460 > 10 µM | HL-60 > 4.6 µM | MDA-MB-435 4.03 µM | CAKI-1 2.56 µM | UACC-62 7.59 µM | Hs-578T > 10 µM | OVCAR-8 > 6.97 µM | IGROV-1 > 6.31 µM | A549 > 10 µM | ACHN 3.68 µM | UO-31 > 10 µM | Malme-3M 2.49 µM | HT-29 > 8.75 µM | M14 2.37 µM | RPMI-8226 > 5.05 µM | SK-OV-3 > 10 µM | PC-3 > 10 µM | 786-0 5.71 µM | TK-10 5.5 µM | NCI-H23 3.59 µM | COLO 205 1.83 µM | HCC 2998 > 10 µM | HCT-116 2.12 µM | NCI-H522 1.44 µM | SF-539 > 5.38 µM | A498 > 10 µM | SR > 3.74 µM | SNB-75 3.17 µM | DU-145 > 10 µM | SF-268 9.71 µM | MDA-MB-231 > 6.76 µM | MOLT-4 2.57 µM | HOP-62 > 10 µM | KM12 > 10 µM | OVCAR-4 1.77 µM | BT-549 2.64 µM | LOX IMVI 3.7 µM | T47D 2.16 µM | SK-MEL-5 4.16 µM | EKVX > 5.6 µM | HOP-92 2.27 µM | SK-MEL-2 > 9.29 µM | SF-295 > 10 µM | SK-MEL-28 > 10 µM
2.55 µM: HCT-15

O=P(O)(CCP(=O)(O)c1ccccc1)c1ccccc1
inactive: OVCAR-3 > 100 µM | SNB-19 > 100 µM | K562 > 100 µM | MDA-N > 100 µM | NCI/ADR-RES > 100 µM | SW-620 > 100 µM | NCI-H226 > 100 µM | MCF7 > 100 µM | OVCAR-5 > 100 µM | SN12C > 100 µM | UACC-257 > 100 µM | U-251 > 100 µM | RXF 393 > 100 µM | NCI-H460 > 100 µM | HL-60 > 100 µM | MDA-MB-435 > 100 µM | CAKI-1 > 100 µM | UACC-62 > 100 µM | Hs-578T > 100 µM | OVCAR-8 > 100 µM | IGROV-1 > 100 µM | A549 > 100 µM | ACHN > 100 µM | UO-31 > 100 µM | Malme-3M > 100 µM | HT-29 > 100 µM | M14 > 100 µM | RPMI-8226 > 100 µM | SK-OV-3 > 100 µM | PC-3 > 100 µM | 786-0 > 100 µM | TK-10 > 100 µM | NCI-H23 > 100 µM | COLO 205 > 100 µM | HCC 2998 > 100 µM | HCT-116 > 100 µM | NCI-H522 > 100 µM | SF-539 > 100 µM | A498 > 100 µM | SR > 100 µM | SNB-75 > 100 µM | DU-145 > 100 µM | SF-268 > 100 µM | MDA-MB-231 > 100 µM | MOLT-4 > 100 µM | HOP-62 > 100 µM | KM12 > 100 µM | OVCAR-4 > 100 µM | BT-549 > 100 µM | LOX IMVI > 100 µM | T47D > 100 µM | SK-MEL-5 > 100 µM | EKVX > 100 µM | HOP-92 > 100 µM | SK-MEL-2 > 100 µM | SF-295 > 100 µM | SK-MEL-28 > 100 µM | CCRF-CEM > 100 µM
> 100 µM: HCT-15

COC[C@H]1C(=O)NCC(=O)N2N=CCC[C@H]2C(=O)N(O)[C@H](C)C(=O)O[C@@H](C(C)C)[C@H](NC(=O)[C@@](C)(O)[C@]2(O)CC[C@@H](CC(C)C)[C@H](C)O2)C(=O)N2NCCC[C@@H]2C(=O)N1O
0.12 µM: HCT-15
active: OVCAR-3 0.0183 µM | SNB-19 0.0163 µM | K562 0.02 µM | MDA-N 0.018 µM | NCI/ADR-RES 0.316 µM | SW-620 0.0157 µM | NCI-H226 0.0197 µM | MCF7 0.0168 µM | OVCAR-5 0.0178 µM | SN12C 0.0185 µM | UACC-257 0.0184 µM | U-251 0.0168 µM | RXF 393 0.0172 µM | NCI-H460 0.0166 µM | HL-60 0.0148 µM | MDA-MB-435 0.0164 µM | CAKI-1 0.133 µM | UACC-62 0.0176 µM | Hs-578T 0.0179 µM | OVCAR-8 0.0185 µM | IGROV-1 0.0157 µM | A549 0.019 µM | ACHN 0.0324 µM | UO-31 0.169 µM | Malme-3M 0.0171 µM | HT-29 0.0172 µM | M14 0.0183 µM | RPMI-8226 0.0208 µM | SK-OV-3 0.0273 µM | PC-3 0.0175 µM | 786-0 0.0174 µM | TK-10 0.0218 µM | NCI-H23 0.0163 µM | COLO 205 0.0175 µM | HCC 2998 0.0169 µM | HCT-116 0.0134 µM | NCI-H522 0.0178 µM | SF-539 0.0172 µM | A498 0.0412 µM | SR 0.014 µM | SNB-75 < 0.0109 µM | DU-145 0.0343 µM | SF-268 0.0163 µM | MDA-MB-231 0.0191 µM | MOLT-4 0.0164 µM | HOP-62 0.0175 µM | KM12 0.0134 µM | OVCAR-4 0.0168 µM | BT-549 0.0166 µM | LOX IMVI 0.0178 µM | T47D 0.0228 µM | SK-MEL-5 0.0156 µM | EKVX 0.0292 µM | HOP-92 0.0174 µM | SK-MEL-2 0.0164 µM | SF-295 0.0193 µM | SK-MEL-28 0.0174 µM | CCRF-CEM 0.0216 µM
